From BindingDB's records for doi:10.1016/j.ejmech.2015.07.016 (China Pharmaceutical University, 2015)
Square brackets hold non-standard residues; d marks the D form. Peptide text beside a SMILES is read from it. pGlu = O=C1CC[C@@H](C(=O)O)N1

What was measured:
[1] = Antagonist activity at GP2b/3a receptor in New Zealand rabbit platelet-rich plasma assessed as inhibition of ADP-induced platelet aggregation preincubated for 1 min followed by addition of ADP by aggregometer
[2] = Antagonist activity at GP2b/3a receptor in New Zealand rabbit platelet-rich plasma assessed as inhibition of U46619-induced platelet aggregation preincubated for 1 min followed by addition of ADP by aggregometer
[3] = Antagonist activity at GP2b/3a receptor in New Zealand rabbit platelet-rich plasma assessed as inhibition of thrombin-induced platelet aggregation preincubated for 1 min followed by addition of ADP by aggregometer
[4] = Antagonist activity at GP2b/3a receptor in New Zealand rabbit platelet-rich plasma assessed as inhibition of collagen-induced platelet aggregation preincubated for 1 min followed by addition of ADP by aggregometer

IC50 [1] [µM]	Structure (SMILES)	further results
95.7	O=C(O)[C@H](Cc1c[nH]c2ccc(OCCCCC3CCNCC3)cc12)NS(=O)(=O)c1ccccc1	–
108	Cc1ccc(S(=O)(=O)N[C@@H](Cc2c[nH]c3ccc(OCCCCC4CCNCC4)cc23)C(=O)O)cc1	–
> 500	COc1ccc(S(=O)(=O)N[C@@H](Cc2c[nH]c3ccc(OCCCCC4CCNCC4)cc23)C(=O)O)cc1	–
> 500	COc1ccc(C(=O)N[C@@H](Cc2c[nH]c3ccc(OCCCCC4CCNCC4)cc23)C(=O)O)cc1	–
96.1	O=C(N[C@@H](Cc1c[nH]c2ccc(OCCCCC3CCNCC3)cc12)C(=O)O)c1cccc(F)c1	–
24.8	O=C(O)[C@H](Cc1c[nH]c2ccc(OCCCCC3CCNCC3)cc12)NS(=O)(=O)c1ccc(Br)cc1	IC50 [2]: 590 µM; IC50 [3]: 124 µM; IC50 [4]: 683 µM
94.4	O=C(N[C@@H](Cc1c[nH]c2ccc(OCCCCC3CCNCC3)cc12)C(=O)O)c1ccc(F)cc1	–
488	O=C(N[C@@H](Cc1c[nH]c2ccc(OCCCCC3CCNCC3)cc12)C(=O)O)c1ccc([N+](=O)[O-])cc1	–
93.1	O=C(O)[C@H](Cc1c[nH]c2ccc(OCCCCC3CCNCC3)cc12)NS(=O)(=O)c1ccc(F)cc1	–
425	O=C(O)[C@H](Cc1c[nH]c2ccc(OCCCCC3CCNCC3)cc12)NS(=O)(=O)c1ccc([N+](=O)[O-])cc1	–
86.5	O=C(N[C@@H](Cc1c[nH]c2ccc(OCCCCC3CCNCC3)cc12)C(=O)O)c1cc(Cl)cc(Cl)c1	–
> 500	O=C(N[C@@H](Cc1c[nH]c2ccc(OCCCCC3CCNCC3)cc12)C(=O)O)c1ccccc1	–
> 500	NC(=O)C[C@H](NC(=O)[C@@H]1CCC(=O)N1)C(=O)N[C@@H](Cc1c[nH]c2ccccc12)C(=O)O ([pGlu]-Asn-Trp-OH)	–
